Data on 11 compounds can be found in patent US20150274719A1, “AMINO-SUBSTITUTED IMIDAZO[1,2-A]PYRIDINECARBOXAMIDES AND THEIR USE” (BAYER PHARMA AKTIENGESELLSCHAFT, priority 2012, published 2015).

Structures can show the parent of a compound that is named as a salt. Where two headings read alike, the source gives them in different places.

Usually half-life stands for how long it takes for the measured level to halve. Higher therefore signals slow loss. One may read the MRT as a mean duration of stay, worked out from the concentration-time curve.

Series [1] is described as follows: Determination of pharmacokinetic parameters following intravenous and oral administration (rats). It is filed as in vivo, male Wistar rats. Conditions: intravenous administration in rats. As for the experimental part: B-6. Determination of Pharmacokinetic Parameters Following Intravenous and Oral Administration
The pharmacokinetic parameters of the compounds according to the invention are determined in male CD-1 mice, male Wistar rats and female beagles. Intravenous administration in the case of mice and rats is carried out by means of a species-specific plasma/DMSO formulation, and in the case of dogs by means of a water/PEG400/ethanol formulation. In all species, oral administration of the dissolved substance is performed via gavage, based on a water/PEG400/ethanol formulation. The taking of blood from rats is simplified by inserting a silicone catheter into the right Vena jugularis externa prior to substance administration. The operation is carried out at least one day prior to the experiment with […] and administration of an analgesic (atropin/Rimadyl (3/1) 0.1 ml s.c.). The blood is taken (generally more than 10 time points) within a time window including terminal time points of at least 24 to a maximum of 72 hours after substance administration. When the blood is taken, it is passed into heparinised tubes. Then the blood plasma is obtained by centrifugation and is optionally stored at −20° C. until further processing.
An internal standard (which may also be a chemically unrelated substance) is added to the samples of the compounds according to the invention, calibration samples and qualifiers, and there follows protein precipitation by means of excess acetone. Addition of a buffer solution matched to the LC conditions, and subsequent vortexing, is followed by centrifugation at 1000 g. The supernatant is analysed by LC-MS/MS using C18 reversed-phase columns and variable mobile phase mixtures. The substances are quantified via the peak heights or areas from extracted ion chromatograms of specific selected ion monitoring experiments.
The plasma concentration/time plots determined are used to calculate the pharmacokinetic parameters such as AUC, Cmax, t1/2 (terminal half life), F (bioavailability), MRT (mean residence time) and CL (clearance), using a validated pharmacokinetic calculation program.
Since the substance quantification is carried out in plasma, it is necessary to determine the blood/plasma distribution of the substance in order to be able to adjust the pharmacokinetic parameters correspondingly. For this purpose, a defined amount of substance is incubated in heparinized whole blood of the species in question in a rocking roller mixture for 20 min. After centrifugation at 1000 g, the plasma concentration is measured (by means of LC-MS/MS; see above) and determined by calculating the ratio of the Cblood/Cplasma value.

Series [2] addresses T1, recombinant guanylate cyclase reporter cell line (Rattus norvegicus, UniProt P19686+P20595).
T1 construct: expressed in transfected cells; host or cells: recombinant reporter cell line
T1 sequence (P19686 1-690): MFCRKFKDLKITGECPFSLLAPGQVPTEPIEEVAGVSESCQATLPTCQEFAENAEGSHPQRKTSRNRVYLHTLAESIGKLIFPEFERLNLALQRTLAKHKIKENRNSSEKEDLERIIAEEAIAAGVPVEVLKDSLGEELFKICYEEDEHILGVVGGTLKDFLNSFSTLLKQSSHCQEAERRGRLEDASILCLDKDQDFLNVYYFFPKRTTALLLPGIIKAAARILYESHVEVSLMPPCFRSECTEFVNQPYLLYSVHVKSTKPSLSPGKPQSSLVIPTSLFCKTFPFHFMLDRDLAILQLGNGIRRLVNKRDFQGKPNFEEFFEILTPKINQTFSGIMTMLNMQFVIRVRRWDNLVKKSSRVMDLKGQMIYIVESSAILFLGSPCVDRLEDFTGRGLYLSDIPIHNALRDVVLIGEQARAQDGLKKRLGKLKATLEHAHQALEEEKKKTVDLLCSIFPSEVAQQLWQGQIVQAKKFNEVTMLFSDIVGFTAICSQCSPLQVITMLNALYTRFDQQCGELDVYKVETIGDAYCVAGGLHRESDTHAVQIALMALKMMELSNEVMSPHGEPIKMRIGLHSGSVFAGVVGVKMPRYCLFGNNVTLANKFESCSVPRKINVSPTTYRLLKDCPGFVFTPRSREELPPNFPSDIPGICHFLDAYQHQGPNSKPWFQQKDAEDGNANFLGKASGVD
T1 sequence (P20595 1-619): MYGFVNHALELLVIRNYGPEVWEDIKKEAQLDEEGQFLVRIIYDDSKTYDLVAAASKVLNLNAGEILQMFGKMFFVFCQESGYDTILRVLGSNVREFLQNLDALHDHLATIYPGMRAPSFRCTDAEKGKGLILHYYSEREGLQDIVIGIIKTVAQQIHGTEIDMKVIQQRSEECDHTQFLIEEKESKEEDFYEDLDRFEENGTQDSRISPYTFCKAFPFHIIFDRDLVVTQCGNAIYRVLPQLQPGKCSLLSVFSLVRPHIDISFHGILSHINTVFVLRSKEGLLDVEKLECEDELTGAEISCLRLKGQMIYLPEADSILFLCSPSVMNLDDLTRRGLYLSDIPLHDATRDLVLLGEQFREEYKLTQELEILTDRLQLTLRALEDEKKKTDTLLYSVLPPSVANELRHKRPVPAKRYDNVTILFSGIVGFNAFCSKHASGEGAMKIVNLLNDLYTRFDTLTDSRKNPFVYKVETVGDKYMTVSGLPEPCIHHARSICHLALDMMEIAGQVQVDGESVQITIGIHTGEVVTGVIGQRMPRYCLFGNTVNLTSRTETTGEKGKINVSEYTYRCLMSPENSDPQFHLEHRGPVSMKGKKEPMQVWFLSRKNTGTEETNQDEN
Briefly: Action on recombinant guanylate cyclase reporter cell line. Format: cell-based. Conditions: in some cases mean values from individual determinations. In a few lines: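 Reported value is the minimal effective concentration (MEC), in some cases a mean of single runs, taken from a recombinant rat guanylate cyclase reporter cell line.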

Setting [3] is: male, Wistar, rat, plasma, iv, read-out: MRT.

In series [1], `Cc1nc2c(OCc3c(F)cccc3F)cccn2c1C(=O)NC(CN)CCCC(F)(F)F` (racemic) [Example 4, rac-N-(1-amino-6,6,6-trifluorohexan-2-yl)-8-[(2,6-difluorobenzyl)oxy]-2-methylimidazo[1,2-a]pyridine-3-carboxamide] showed an AUCnorm of 0.58 kg·h/L and a CLblood of 27.8 mL/min/kg. Moreover, the half-life in series [1] (male, Wistar, rat, plasma, iv) is 5.2 h. The mean residence time (MRT) in series [1] (setting [3]) stood at 6.7 h.

`Cc1cc(OCc2c(F)cccc2F)c2nc(C)c(C(=O)NCC(C)(N)CF)n2c1` (racemic) [Example 282, rac-N-(2-amino-3-fluoro-2-methylpropyl)-8-[(2,6-difluorobenzyl)oxy]-2,6-dimethylimidazo[1,2-a]pyridine-3-carboxamide Formate]: in series [1], the AUCnorm came out at 0.73 kg·h/L and the CLblood turned out to be 23.5 mL/min/kg. The compound also gave a half-life in series [1] (male, Wistar, rat, plasma, iv) of 4.5 h. Also, in series [1] (setting [3]), the MRT was 5.7 h. Further, the “MEC (minimal effective concentration)” value in series [2] was 0.3 µM.

In series [1], `CCCC(C)(N)CNC(=O)c1c(C)nc2c(OCc3cccc(F)c3F)cc(C)cn12` (racemic) [Example 303, rac-N-(2-amino-2-methylpentyl)-8-[(2,3-difluorobenzyl)oxy]-2,6-dimethylimidazo[1,2-a]pyridine-3-carboxamide] displayed an AUCnorm of 0.26 kg·h/L and a CLblood of 45.7 mL/min/kg. The compound further showed a half-life in series [1] (male, Wistar, rat, plasma, iv) of 5.7 h. Also, the MRT in series [1] (setting [3]) amounted to 8.2 h. Besides, in series [2], the “MEC (minimal effective concentration)” value was 0.20 µM.

For `CCC(C)(N)CNC(=O)c1c(C)nc2c(OCc3c(F)cccc3F)cc(Cl)cn12` (single isomer, unassigned) [Example 194, ent-N-(2-Amino-2-methylbutyl)-6-chloro-8-[(2,6-difluorobenzyl)oxy]-2-methylimidazo[1,2-a]-pyridine-3-carboxamide], in series [1], the AUCnorm is 2.06 kg·h/L and the CLblood was found to be 8 mL/min/kg. This compound also gave a half-life in series [1] (male, Wistar, rat, plasma, iv) of 16.8 h. Moreover, in series [1] (setting [3]), the MRT turned out to be 24.4 h. The “MEC (minimal effective concentration)” value in series [2] is 0.10 µM.

On to `Cc1nc2c(OCc3c(F)cccc3F)cc(Cl)cn2c1C(=O)NCC(N)C(C)C` (single isomer, unassigned) [Example 211, ent-N-(2-Amino-3-methylbutyl)-6-chloro-8-[(2,6-difluorobenzyl)oxy]-2-methylimidazo[1,2-a]-pyridine-3-carboxamide], for which, in series [1], the AUCnorm was determined as 0.78 kg·h/L and the CLblood amounted to 17.8 mL/min/kg. Further, the half-life in series [1] (male, Wistar, rat, plasma, iv) is 4.8 h. The mean residence time (MRT) in series [1] (setting [3]) is 6.6 h. Also, the “MEC (minimal effective concentration)” value in series [2] turned out to be 0.30 µM.

In series [1], `Cc1cc(OCc2c(F)cccc2F)c2nc(C)c(C(=O)NCC(N)C(C)C)n2c1` (single isomer, unassigned) [Example 223, ent-N-(2-Amino-3-methylbutyl)-8-[(2,6-difluorobenzyl)oxy]-2,6-dimethylimidazo[1,2-a]pyridine-3-carboxamide] had an AUCnorm of 0.87 kg·h/L and a CLblood of 18.2 mL/min/kg. Further, the half-life in series [1] (male, Wistar, rat, plasma, iv) was 4.8 h. Besides, the mean residence time (MRT) in series [1] (setting [3]) is 6.1 h. In addition, in series [2], the “MEC (minimal effective concentration)” value was 0.30 µM.

In series [1], `CCCC(C)(N)CNC(=O)c1c(C)nc2c(OCc3c(F)ccc(F)c3F)cc(C)cn12` (single isomer, unassigned) [Example 295, ent-N-(2-amino-2-methylpentyl)-2,6-dimethyl-8-[(2,3,6-trifluorobenzyl)oxy]imidazo[1,2-a]pyridine-3-carboxamide] gave an AUCnorm of 0.56 kg·h/L and a CLblood of 20.5 mL/min/kg. In series [1] (male, Wistar, rat, plasma, iv), the half-life is 6.6 h. In addition, the MRT in series [1] (setting [3]) came to 8.8 h. In series [2], the “MEC (minimal effective concentration)” value stood at 0.10 µM.

As to `CCCC(C)(N)CNC(=O)c1c(C)nc2c(OCc3c(F)ccc(F)c3F)cc(C)cn12` (single isomer, unassigned) [Example 304, ent-N-(2-amino-2-methylpentyl)-2,6-dimethyl-8-[(2,3,6-trifluorobenzyl)oxy]imidazo[1,2-a]pyridine-3-carboxamide], in series [1], the AUCnorm turned out to be 0.34 kg·h/L, the CLblood is 37.8 mL/min/kg, the MRT came out at 9.4 h and the t1/2 worked out at 6.2 h. For the same compound, the “MEC (minimal effective concentration)” value in series [2] is 0.10 µM.

In series [1], `Cc1cc(OCc2c(F)cccc2F)c2nc(C)c(C(=O)NCC(C)(N)CCC(F)(F)F)n2c1` (single isomer, unassigned) [Example 408, ent-N-(2-amino-5,5,5-trifluoro-2-methylpentyl)-8-[(2,6-difluorobenzyl)oxy]-2,6-dimethylimidazo[1,2-a]pyridine-3-carboxamide] displayed an AUCnorm of 0.19 kg·h/L and a CLblood of 51.2 mL/min/kg. This compound also gave a half-life in series [1] (male, Wistar, rat, plasma, iv) of 3.8 h. The MRT in series [1] (setting [3]) stood at 4.7 h. In addition, the “MEC (minimal effective concentration)” value in series [2] was 0.10 µM.

Turning to `Cc1cc(OCc2c(F)cccc2F)c2nc(C)c(C(=O)NCC(C)(N)CCC(F)(F)F)n2c1` (single isomer, unassigned) [Example 409, ent-N-(2-amino-5,5,5-trifluoro-2-methylpentyl)-8-[(2,6-difluorobenzyl)oxy]-2,6-dimethylimidazo[1,2-a]pyridine-3-carboxamide], in series [1], the AUCnorm came out at 0.28 kg·h/L, the CLblood came out at 35.8 mL/min/kg, the mean residence time (MRT) stood at 7.4 h and the t1/2 is 5.8 h. Moreover, the “MEC (minimal effective concentration)” value in series [2] turned out to be 0.03 µM.

In series [1], `Cc1cc(OCc2c(F)ccc(F)c2F)c2nc(C)c(C(=O)NCC(C)(N)CCC(F)(F)F)n2c1` (single isomer, unassigned) [Example 410, ent-N-(2-amino-5,5,5-trifluoro-2-methylpentyl)-2,6-dimethyl-8-[(2,3,6-trifluorobenzyl)oxy]imidazo[1,2-a]pyridine-3-carboxamide] yielded an AUCnorm of 0.21 kg·h/L, a CLblood of 46.2 mL/min/kg and a mean residence time MRT of 5.4 h. This compound also gave a half-life in series [1] (male, Wistar, rat, plasma, iv) of 4.3 h. Besides, the “MEC (minimal effective concentration)” value in series [2] was 0.10 µM.
